{"source": "the supplement of paper PMC10307832", "test_in_all_cases": "relative viability (nuclei count vs DMSO), 5 days (fraction); higher = more cells survive", "key": {"[1]": {"compound": "CC1=C(C(=NN1)C)CC2=C(C3=C(S2)N(C(=O)N(C3=O)C)CC(C)C)C(=O)N4C[C@@H](CO4)O + C[C@@H](Oc1cc(-c2cnn(C3CCNCC3)c2)cnc1N)c1c(Cl)ccc(F)c1Cl [Crizotinib] (partner 1 µM)", "how_it_was_run": "(§1)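 Lung cancer cell lines in 1536-well plates were dosed by pin tool the day after seeding, either with one drug alone or with a fixed anchor-drug dose plus five library-drug doses (not always all listed) in √10 steps. After 5 days, cells were fixed and their nuclei stained in one step (final 0.05% Triton X-100, 1% formaldehyde, 1 ug/ml Hoechst), then counted on 4× images. Relative viability is the nuclei count in treated wells divided by that in vehicle wells. Values are medians of duplicate plates.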"}, "IDH-C35 + Trametinib": {"compound": "Cc1ccccc1C(C(=O)NC1CCCCC1)N(C(=O)Cn1ccnc1C)c1cccc(F)c1 [IDH-C35] + CC(=O)Nc1cccc(-n2c(=O)n(C3CC3)c(=O)c3c(Nc4ccc(I)cc4F)n(C)c(=O)c(C)c32)c1 [Trametinib] (partner 0.02 µM)", "how_it_was_run": "as §1"}, "IDH-C35 + Tozasertib": {"compound": "Cc1ccccc1C(C(=O)NC1CCCCC1)N(C(=O)Cn1ccnc1C)c1cccc(F)c1 [IDH-C35] + Cc1cc(Nc2cc(N3CCN(C)CC3)nc(Sc3ccc(NC(=O)C4CC4)cc3)n2)n[nH]1 [Tozasertib] (partner 0.1 µM)", "how_it_was_run": "as §1"}, "IDH-C35 + Decitabine": {"compound": "Cc1ccccc1C(C(=O)NC1CCCCC1)N(C(=O)Cn1ccnc1C)c1cccc(F)c1 [IDH-C35] + Nc1ncn([C@H]2C[C@H](O)[C@@H](CO)O2)c(=O)n1 [Decitabine] (partner 2 µM)", "how_it_was_run": "as §1"}}}
{"cell line": "UMC-11", "values": [{"measurement": "relative viability", "setting": "[1]; first compound 0.0025 µM", "value": 0.647}, {"measurement": "relative viability", "setting": "[1]; first compound 0.007906 µM", "value": 0.346}, {"measurement": "relative viability", "setting": "[1]; first compound 0.025 µM", "value": 0.441}, {"measurement": "relative viability", "setting": "[1]; first compound 0.07906 µM", "value": 0.628}, {"measurement": "relative viability", "setting": "[1]; first compound 0.25 µM", "value": 0.657}, {"measurement": "relative viability", "setting": "IDH-C35 + Trametinib; first compound 0.08 µM", "value": 0.738}, {"measurement": "relative viability", "setting": "IDH-C35 + Trametinib; first compound 0.253 µM", "value": 0.761}, {"measurement": "relative viability", "setting": "IDH-C35 + Trametinib; first compound 0.8 µM", "value": 0.617}, {"measurement": "relative viability", "setting": "IDH-C35 + Trametinib; first compound 2.53 µM", "value": 0.685}, {"measurement": "relative viability", "setting": "IDH-C35 + Trametinib; first compound 8 µM", "value": 0.772}, {"measurement": "relative viability", "setting": "IDH-C35 + Tozasertib; first compound 0.08 µM", "value": 0.199}, {"measurement": "relative viability", "setting": "IDH-C35 + Tozasertib; first compound 0.253 µM", "value": 0.198}, {"measurement": "relative viability", "setting": "IDH-C35 + Tozasertib; first compound 0.8 µM", "value": 0.197}, {"measurement": "relative viability", "setting": "IDH-C35 + Tozasertib; first compound 2.53 µM", "value": 0.198}, {"measurement": "relative viability", "setting": "IDH-C35 + Tozasertib; first compound 8 µM", "value": 0.193}, {"measurement": "relative viability", "setting": "IDH-C35 + Decitabine; first compound 0.08 µM", "value": 0.572}, {"measurement": "relative viability", "setting": "IDH-C35 + Decitabine; first compound 0.253 µM", "value": 0.724}, {"measurement": "relative viability", "setting": "IDH-C35 + Decitabine; first compound 0.8 µM", "value": 0.576}, {"measurement": "relative viability", "setting": "IDH-C35 + Decitabine; first compound 2.53 µM", "value": 0.609}, {"measurement": "relative viability", "setting": "IDH-C35 + Decitabine; first compound 8 µM", "value": 0.619}]}
